# Measurements from patent US4287206A, “Halogen derivatives of 8-hydroxycarboxylic acids; the processes for their preparation and medicaments in which they are present” (priority 1978, dated 1981).
# Columns and labels:
# [1] = system: mice; experiment: Motor activity in mice (activity meters with photoelectric cells); format: in vivo
# Protocol: The motor activity was determined with the aid of activity meters having photoelectric cells (Boissier and Simon, Arch. int. Pharmacodyn. 1965, 158, 212-221). A minimum of 10 animals was always used per batch.
# The mice are placed in the activity meter just after the oral or intraperitoneal administration of the product acccording to the invention, obtained in accordance with Example I. The motor activity is measured as from the introduction into the activity meter up to the 60th minute. The counters are read after 30 minutes, then reset to 0 and read every 10 minutes for 30 minutes.
# [2] = system: mice; experiment: Anti-reserpine activity in mice (reserpine hypothermia); format: in vivo; details: Table IIa, reserpine 2.5 mg.kg^-1 i.p. 4 h before
# Protocol: Anti-reserpine activity in mice
# At time 0, the mice receive reserpine (2.5 mg.kg^-1) by intraperitoneal administration.
# After 4 hours, when the hypothermia is significant (30 to 31°C.), the substance to be studied is administered intraperitoneally or orally. The rectal temperature is measured, using a probe, carrying a thermoelectric couple, inserted to a constant depth, every 30 minutes for 2 hours.
compound,measurement,setting,value
"CC1CC(c2ccc(Cl)cc2)C(c2ccccc2)C(=O)O1 (stereo not drawn) [Example I, trans-4-(4'-chlorophenyl)-6-methyl-3-phenyl-3,4,5,6-tetrahydropyrone-2]",Number of rays passed through by mice,"[1]; Table Ia, 1 mg/kg intraperitoneal, 30 + 10 min",76
same,Number of rays passed through by mice,"[1]; Table Ia, 1 mg/kg intraperitoneal, 30 + 20 min",163
same,Number of rays passed through by mice,"[1]; Table Ia, 1 mg/kg intraperitoneal, 30 + 30 min",235
same,Number of rays passed through by mice,"[1]; Table Ia, 1 mg/kg intraperitoneal, 30 min",400
same,Number of rays passed through by mice,"[1]; Table Ia, 2 mg/kg intraperitoneal, 30 + 10 min",114
same,Number of rays passed through by mice,"[1]; Table Ia, 2 mg/kg intraperitoneal, 30 + 20 min",231
same,Number of rays passed through by mice,"[1]; Table Ia, 2 mg/kg intraperitoneal, 30 + 30 min",331
same,Number of rays passed through by mice,"[1]; Table Ia, 2 mg/kg intraperitoneal, 30 min",474
same,Number of rays passed through by mice,"[1]; Table Ia, 4 mg/kg intraperitoneal, 30 + 10 min",129
same,Number of rays passed through by mice,"[1]; Table Ia, 4 mg/kg intraperitoneal, 30 + 20 min",269
same,Number of rays passed through by mice,"[1]; Table Ia, 4 mg/kg intraperitoneal, 30 + 30 min",322
same,Number of rays passed through by mice,"[1]; Table Ia, 4 mg/kg intraperitoneal, 30 min",529
same,Number of rays passed through by mice,"[1]; Table Ia, 4 mg/kg oral, 30 + 10 min",139
same,Number of rays passed through by mice,"[1]; Table Ia, 4 mg/kg oral, 30 + 20 min",257
same,Number of rays passed through by mice,"[1]; Table Ia, 4 mg/kg oral, 30 + 30 min",386
same,Number of rays passed through by mice,"[1]; Table Ia, 4 mg/kg oral, 30 min",462
same,Number of rays passed through by mice,"[1]; Table Ia, 8 mg/kg intraperitoneal, 30 + 10 min",147
same,Number of rays passed through by mice,"[1]; Table Ia, 8 mg/kg intraperitoneal, 30 + 20 min",309
same,Number of rays passed through by mice,"[1]; Table Ia, 8 mg/kg intraperitoneal, 30 + 30 min",467
same,Number of rays passed through by mice,"[1]; Table Ia, 8 mg/kg intraperitoneal, 30 min",659
same,Number of rays passed through by mice,"[1]; Table Ia, 8 mg/kg oral, 30 + 10 min",157
same,Number of rays passed through by mice,"[1]; Table Ia, 8 mg/kg oral, 30 + 20 min",314
same,Number of rays passed through by mice,"[1]; Table Ia, 8 mg/kg oral, 30 + 30 min",461
same,Number of rays passed through by mice,"[1]; Table Ia, 8 mg/kg oral, 30 min",478
same,Number of rays passed through by mice,"[1]; Table Ia, 16 mg/kg intraperitoneal, 30 + 10 min",176
same,Number of rays passed through by mice,"[1]; Table Ia, 16 mg/kg intraperitoneal, 30 + 20 min",336
same,Number of rays passed through by mice,"[1]; Table Ia, 16 mg/kg intraperitoneal, 30 + 30 min",465
same,Number of rays passed through by mice,"[1]; Table Ia, 16 mg/kg intraperitoneal, 30 min",763
same,Number of rays passed through by mice,"[1]; Table Ia, 16 mg/kg oral, 30 + 10 min",232
same,Number of rays passed through by mice,"[1]; Table Ia, 16 mg/kg oral, 30 + 20 min",428
same,Number of rays passed through by mice,"[1]; Table Ia, 16 mg/kg oral, 30 + 30 min",636
same,Number of rays passed through by mice,"[1]; Table Ia, 16 mg/kg oral, 30 min",629
same,Number of rays passed through by mice,"[1]; Table Ia, 32 mg/kg intraperitoneal, 30 + 10 min",187
same,Number of rays passed through by mice,"[1]; Table Ia, 32 mg/kg intraperitoneal, 30 + 20 min",422
same,Number of rays passed through by mice,"[1]; Table Ia, 32 mg/kg intraperitoneal, 30 + 30 min",594
same,Number of rays passed through by mice,"[1]; Table Ia, 32 mg/kg intraperitoneal, 30 min",891
same,Number of rays passed through by mice,"[1]; Table Ia, 32 mg/kg oral, 30 + 10 min",270
same,Number of rays passed through by mice,"[1]; Table Ia, 32 mg/kg oral, 30 + 20 min",587
same,Number of rays passed through by mice,"[1]; Table Ia, 32 mg/kg oral, 30 + 30 min",869
same,Number of rays passed through by mice,"[1]; Table Ia, 32 mg/kg oral, 30 min",783
same,Number of rays passed through by mice,"[1]; Table Ib, 2 mg/kg, route not given, 0 + 10 min",119
same,Number of rays passed through by mice,"[1]; Table Ib, 2 mg/kg, route not given, 30 + 20 min",221
same,Number of rays passed through by mice,"[1]; Table Ib, 2 mg/kg, route not given, 30 + 30 min",334
same,Number of rays passed through by mice,"[1]; Table Ib, 2 mg/kg, route not given, 30 min",417
same,Number of rays passed through by mice,"[1]; Table Ib, 4 mg/kg, route not given, 0 + 10 min",129
same,Number of rays passed through by mice,"[1]; Table Ib, 4 mg/kg, route not given, 30 + 20 min",259
same,Number of rays passed through by mice,"[1]; Table Ib, 4 mg/kg, route not given, 30 + 30 min",376
same,Number of rays passed through by mice,"[1]; Table Ib, 4 mg/kg, route not given, 30 min",472
same,Number of rays passed through by mice,"[1]; Table Ib, 8 mg/kg, route not given, 0 + 10 min",141
same,Number of rays passed through by mice,"[1]; Table Ib, 8 mg/kg, route not given, 30 + 20 min",286
same,Number of rays passed through by mice,"[1]; Table Ib, 8 mg/kg, route not given, 30 + 30 min",443
same,Number of rays passed through by mice,"[1]; Table Ib, 8 mg/kg, route not given, 30 min",452
same,Number of rays passed through by mice,"[1]; Table Ib, 16 mg/kg, route not given, 0 + 10 min",172
same,Number of rays passed through by mice,"[1]; Table Ib, 16 mg/kg, route not given, 30 + 20 min",359
same,Number of rays passed through by mice,"[1]; Table Ib, 16 mg/kg, route not given, 30 + 30 min",537
same,Number of rays passed through by mice,"[1]; Table Ib, 16 mg/kg, route not given, 30 min",565
same,Number of rays passed through by mice,"[1]; Table Ib, 32 mg/kg, route not given, 0 + 10 min",184
same,Number of rays passed through by mice,"[1]; Table Ib, 32 mg/kg, route not given, 30 + 20 min",376
same,Number of rays passed through by mice,"[1]; Table Ib, 32 mg/kg, route not given, 30 + 30 min",547
same,Number of rays passed through by mice,"[1]; Table Ib, 32 mg/kg, route not given, 30 min",560
same,Rectal temperatures °C. ± SD,"[2]; 4 mg/kg oral, 30 min",30.6 ± 0.39 °C
same,Rectal temperatures °C. ± SD,"[2]; 4 mg/kg oral, 60 min",30.6 ± 0.45 °C
same,Rectal temperatures °C. ± SD,"[2]; 4 mg/kg oral, 90 min",30.7 ± 0.59 °C
same,Rectal temperatures °C. ± SD,"[2]; 4 mg/kg oral, 120 min",30.4 ± 0.67 °C
same,Rectal temperatures °C. ± SD,"[2]; 8 mg/kg oral, 30 min",31.1 ± 0.36 °C
same,Rectal temperatures °C. ± SD,"[2]; 8 mg/kg oral, 60 min",31.4 ± 0.56 °C
same,Rectal temperatures °C. ± SD,"[2]; 8 mg/kg oral, 90 min",31.5 ± 0.57 °C
